According to patent US20220375563A1, “METHOD AND APPARATUS FOR INDIVIDUALIZED ADMINISTRATION OF MEDICAMENTS FOR ENHANCED SAFE DELIVERY WITHIN A THERAPEUTIC RANGE” (UNIVERSITY OF MARYLAND, BALTIMORE, priority 2019, published 2022):
Like-named read-outs stand apart in the source and are kept apart here.

Experiments:
[1] = cited from earlier work; for Concentration range: Table 1 anti-epileptics, * uncertain reference range, ** well defined toxic range
[2] = Therapeutic index (ratio between upper/lower bounds of therapeutic window); format: in vivo
Description: In various example embodiments, dosing is determined using some or all the steps of method 300 for medicaments listed in the following tables. For each medicament listed, a concentration window W or therapeutic index is listed in a third column. The therapeutic index (TI, also referred to as therapeutic ratio) is a quantitative measurement of the relative safety of a drug. It is a comparison of the amount of a therapeutic agent that causes the therapeutic effect to the amount that causes toxicity. As proposed herein, a cost function g(y) is based, at least in part, on a value in this third column. The Koopman Expectation is used in Equation 11 or Equation 12 with a quadrature procedure to deduce an optimum range or subset of the dosing range listed in the second column.

[3] = Table 1 anti-epileptics; printed in place of a dose range; cited from earlier work

Row | Structure (SMILES) | Therapeutic index ([2]; Table 7 antiepileptics) | Concentration range [1] | Therapeutic window ([1]; Table 7 antiepileptics) | other results
1 | C[C@H]1O[C@@H](O[C@H]2[C@@H](O)C[C@H](O[C@H]3[C@@H](O)C[C@H](O[C@H]4CC[C@@]5(C)[C@H](CC[C@@H]6[C@@H]5C[C@@H](O)[C@]5(C)[C@@H](C7=CC(=O)OC7)CC[C@]65O)C4)O[C@@H]3C)O[C@@H]2C)C[C@H](O)[C@@H]1O [Digoxin] | – | – | – | Concentration/biomarker range ([1]; Table 3 antiarrhythmics, AF): (0.8-2: AF; Concentration/biomarker range ([1]; Table 3 antiarrhythmics, Cl): 0.5-1: Cl)
2 | NS(=O)(=O)Cc1noc2ccccc12 [Zonisamide] | 4 | (10-40 mg/L)** | 10 to 40 mg/L | –
3 | CCC1(C)CC(=O)NC1=O (stereo not shown) [Ethosuximide] | – | (40-100 mg/L) | – | –
4 | CC[C@@H](C(N)=O)N1CCCC1=O [Levetiracetam] | – | (12-46 mg/L) | – | –
5 | CCCC(CCC)C(=O)O [Valproic acid] | 2 | (50-100 mg/L) | 50 to 100 mg/L | Dose range: PK note [3]: (non-linear PK)
6 | CN1C(=O)CC(=O)N(c2ccccc2)c2cc(Cl)ccc21 [Clobazam] | – | (0.03-0.3 mg/L) | – | –
7 | NC(=O)N1c2ccccc2C=Cc2ccccc21 [Carbamazepine] | 3 | – | 4 to 12 mg/L | –
8 | CC(=O)CC(c1ccccc1)c1c(O)c2ccccc2oc1=O (stereo not shown) [Warfarin] | – | – | – | Therapeutic index ([2]; Table 5 anticoagulants): 1.5
9 | [H]/N=C(/N)c1ccc(NCc2nc3cc(C(=O)N(CCC(=O)O)c4ccccn4)ccc3n2C)cc1 [Dabigatran] | – | – | – | Therapeutic index ([2]; Table 5 anticoagulants): 1.7; Concentration/biomarker range ([1]; Table 2 anticoagulants): (60-200 mg/L or
10 | NC(=O)OCC(COC(N)=O)c1ccccc1 [Felbamate] | 2 | (30-60 mg/L)* | 30 to 60 mg/L | –
11 | Nc1nnc(-c2cccc(Cl)c2Cl)c(N)n1 [Lamotrigine] | 4.7 | (3-14 mg/L) | 3 to 14 mg/L | –
12 | CC1CNc2c(cccc2S(=O)(=O)N[C@@H](CCCNC(=N)N)C(=O)N2CC[C@@H](C)C[C@@H]2C(=O)O)C1 (stereo partly shown) [Argatroban] | – | – | – | Therapeutic index ([2]; Table 5 anticoagulants): 1.7
13 | COc1c(C)c2c(c(O)c1C/C=C(\C)CCC(=O)O)C(=O)OC2 [Mycophenolate] | – | – | – | Small change in concentration may lead to failure/serious AE (exposure range) ([1]; Table 4 immunosuppressants, not in label): (30-60 mg*h/L
14 | C=CC(N)CCC(=O)O (stereo not shown) [Vigabatrin] | – | (0.8-36 mg/L) | – | –
15 | CCC1(c2ccccc2)C(=O)NCNC1=O [Primidone] | – | (5-10 mg/L) | – | –
16 | CCC1(c2ccccc2)C(=O)NC(=O)NC1=O [Phenobarbital] | – | (10-40 mg/L) | – | –
17 | CO[C@H]1C[C@@H]2CC[C@@H](C)[C@@](O)(O2)C(=O)C(=O)N2CCCC[C@H]2C(=O)O[C@H]([C@H](C)C[C@@H]2CC[C@@H](O)[C@H](OC)C2)CC(=O)[C@H](C)/C=C(\C)[C@@H](O)[C@@H](OC)C(=O)[C@H](C)C[C@H](C)/C=C/C=C/C=C/1C [Sirolimus] | – | – | – | Small change in concentration may lead to failure/serious AE (concentration range) ([1]; Table 4 immunosuppressants): (12-20 ng/mL)
18 | CO[C@H]1C[C@@H]2CC[C@@H](C)[C@@](O)(O2)C(=O)C(=O)N2CCCC[C@H]2C(=O)O[C@H]([C@H](C)C[C@@H]2CC[C@@H](OCCO)[C@H](OC)C2)CC(=O)[C@H](C)/C=C(\C)[C@@H](O)[C@@H](OC)C(=O)[C@H](C)C[C@H](C)/C=C/C=C/C=C/1C [Everolimus] | – | – | – | Small change in concentration may lead to failure/serious AE (concentration range) ([1]; Table 4 immunosuppressants): (3-8 ng/mL)
19 | NCC1(CC(=O)O)CCCCC1 [Gabapentin] | – | (2-20 mg/L) | – | –
20 | O=C1CN=C(c2ccccc2Cl)c2cc([N+](=O)[O-])ccc2N1 [Clonazepam] | – | (0.02-0.07 mg/L) | – | –
21 | CC1(C)O[C@@H]2[C@@H](CO[C@@]3(COS(N)(=O)=O)OC(C)(C)O[C@@H]23)O1 [Topiramate] | 4 | (5-20 mg/L) | 5 to 20 mg/L | –
22 | C=C[C@H]1C[N@@]2CC[C@H]1C[C@@H]2[C@@H](O)c1ccnc2ccc(OC)cc12 [Quinidine] | – | – | – | Therapeutic index ([2]; Table 6 antiarrhythmics): 2.5; Concentration/biomarker range ([1]; Table 3 antiarrhythmics): (2-5 mg/L); Therapeutic window ([1]; Table 6 antiarrhythmics): 2 to 5 mg/L
23 | O=C1NC(=O)C(c2ccccc2)(c2ccccc2)N1 [Phenytoin] | 2 | (10-20 mg/L) | 10 to 20 mg/L | Dose range: PK note [3]: (non-linear PK)
24 | C=CC[C@@H]1/C=C(\C)C[C@H](C)C[C@H](OC)[C@H]2O[C@@](O)(C(=O)C(=O)N3CCCC[C@H]3C(=O)O[C@H](/C(C)=C/[C@@H]3CC[C@@H](O)[C@H](OC)C3)[C@H](C)[C@@H](O)CC1=O)[C@H](C)C[C@@H]2OC [Tacrolimus] | – | – | – | Small change in concentration may lead to failure/serious AE (concentration range) ([1]; Table 4 immunosuppressants): (5-15 ng/mL)
25 | Cc1ccsc1C(=CCCN1CCC[C@@H](C(=O)O)C1)c1sccc1C [Tiagabine] | 10 | (0.02-0.2 mg/L)* | 0.02 to 0.2 mg/L | –
